Test results: US6664426B1, “Ether and ester derivatives of the perborate icosahedron” (The Regents of the University of California, priority 2000, dated 2003)

Test: Qualitative solubility in water
Assay type: physicochemical
Settings: qualitative statement

Substance	solubility in water
closo-1,12-C2B10H12	not water-soluble
closo-1,12-(CH2OH)2-1,12-C2B10H10	slightly water-soluble
Cs[closo-1-CB11H12]^−	sparingly water-soluble
Cs2[closo-B12H12]^2−	sparingly water-soluble
Cs2[closo-B12(OH)12] [dicesium salt]	freely soluble in water
